These results are taken from patent US8563542B2 (Cyclacel Limited, priority 2007, dated 2013).

One data set concerns the target PLK1 (Homo sapiens, UniProt P53350). Briefly: PLK1 protein kinase assay (CDC25C phosphorylation, [γ-32P]-ATP). It counts as biochemical. The settings on record: read-out: PLK1 IC50.
The next data set has as its target PLK2 (Homo sapiens, UniProt Q9NYY3). Briefly: PLK2 inhibition (PLK selectivity). The format is biochemical. The settings on record: relative selectivity.
The next data set deals with PLK3 (Homo sapiens, UniProt Q9H4B4). In words: PLK3 inhibition (PLK selectivity). It counts as biochemical. The settings on record: relative selectivity.
In data set [1] the test system is A2780 and A2780/ADR cells. Briefly: Cell viability assay (Alamar Blue, 72 h), parental/MDR pair, asymmetry ratio. Conditions: paired parental and MDR tumour cell lines; Example 9, FIG. 3. The format is cell-based, human. From the text:
In vitro cell viability assays have been used to measure the effect of drug accumulation in paired parental and drug resistant tumour cell lines. The pairs used are the human ovarian carcinoma A2780 line with its MDR counterpart A2780/ADR and the human uterine sarcoma MES-SA line with its MDR counterpart MES-SA/Dx5 [Wesolowska O., et al. (2005) Anticancer Res., 25, 383-389].
Method: Cultivated human tumour cells of the ovarian cell line A2780 and its doxorubicin-resistant pair, A2780/ADR and the uterine cell line MES-SA and its doxorubicin-resistant pair, MES-SA/DX5 were seeded at 3000 cells per well in Nunc 96-well tissue culture plates, 100 μl per well in DMEM media containing 10% foetal calf serum and penicillin/streptomycin. […] The plates were then read at 544/595 nm.
The amount of Alamar Blue reagent reacted represents the metabolic activity of the cells. […] The values were calculated from the average of three individual measurements with blank correction (medium-only control).
The assay was performed on the Biomek FxP, automation platform from Beckman Coulter. The plates were read on the Paradigm plate reader supplied by Beckman Coulter. Asymmetry ratios were calculated as the IC50 value of the compound in the drug resistant cells divided by the IC50 value in the parental cells. […]
A general note: Alamar Blue is a resazurin reagent that responds to reducing activity.

Data set [2] is described as follows: Pharmacokinetics in fasted conscious CD-1 mice (iv and oral). The format is in vivo. The settings on record: 1 mg/kg iv, 5-10 mg/kg oral. The procedure: Preliminary investigations of the pharmacokinetics of selected compounds were carried out in fasted conscious CD-1 mice (25-30 g). Compounds were dosed as 1 mg/kg by intravenous administration or 5-10 mg/kg by oral route. Twenty one male mice per administration route (n=3 mice per time point) received dose solution by single bolus injection in the tail vein or by oral gavage. Blood samples were collected by cardiac puncture at 5, 15, 30, 60, 120, 240 and 360 min following iv administration and at 30, 60, 120, 240, 360, 480 and 1440 min following oral administration. Blood samples were collected into tubes containing the anti-coagulant lithium heparin, mixed and placed promptly on crushed ice. Plasma was derived from whole blood by centrifugation, frozen and stored at −80° C. prior to analysis. Plasma concentrations were determined by liquid chromatography-tandem mass spectrometry in electrospray positive mode (ESI LC/MS/MS) using calibration curves prepared in the appropriate matrix. The lower level of quantification (LLOQ) in all cases was ca. 5 ng/mL. Plasma concentration-time data was processed using the computer program WinNonLin version 5.2 from which areas under the plasma concentration-time curve (AUCall) were calculated by non-compartmental analysis using Model 201 (IV-bolus Input) or Model 200 (Extravascular Input).
FIG. 1 plots the area under the curve (AUC) for plasma concentration vs time for each compound tested. The dosing vehicle across these experiments remained constant (intravenous=citrate buffer pH 3, 1 mL/kg; oral=DMA/PEG400/10 […] Tartrate buffer, pH 4 (1:3:6), 5 ml/kg). FIG. 2 represents the same data in the form of oral bioavailability (% F) for each compound.

For a further data set, the target named is T1, AA (Homo sapiens, UniProt O14965).
T1 sequence (O14965 1-403): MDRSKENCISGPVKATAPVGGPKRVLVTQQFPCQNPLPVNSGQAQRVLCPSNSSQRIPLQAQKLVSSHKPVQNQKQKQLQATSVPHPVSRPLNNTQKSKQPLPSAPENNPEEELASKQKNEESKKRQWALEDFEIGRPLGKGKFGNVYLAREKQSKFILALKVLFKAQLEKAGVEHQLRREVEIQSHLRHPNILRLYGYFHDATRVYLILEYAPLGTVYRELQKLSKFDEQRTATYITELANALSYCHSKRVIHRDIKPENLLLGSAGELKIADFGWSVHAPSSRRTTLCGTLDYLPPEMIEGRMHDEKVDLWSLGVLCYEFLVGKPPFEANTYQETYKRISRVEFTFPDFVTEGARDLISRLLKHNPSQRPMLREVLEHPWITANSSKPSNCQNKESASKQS
In words: AA IC50 (Table 1; no method given). The format is biochemical. Conditions: Table 2, AurA IC50; class symbols; read-out: AurA IC50.

Where [3] appears, read: Table 2, PLK1 IC50, class symbols.

Like-named read-outs stand apart in the source and are kept apart here. Bounds are passed on as bounds.

Chain of PLK2 (Q9NYY3 whole entry): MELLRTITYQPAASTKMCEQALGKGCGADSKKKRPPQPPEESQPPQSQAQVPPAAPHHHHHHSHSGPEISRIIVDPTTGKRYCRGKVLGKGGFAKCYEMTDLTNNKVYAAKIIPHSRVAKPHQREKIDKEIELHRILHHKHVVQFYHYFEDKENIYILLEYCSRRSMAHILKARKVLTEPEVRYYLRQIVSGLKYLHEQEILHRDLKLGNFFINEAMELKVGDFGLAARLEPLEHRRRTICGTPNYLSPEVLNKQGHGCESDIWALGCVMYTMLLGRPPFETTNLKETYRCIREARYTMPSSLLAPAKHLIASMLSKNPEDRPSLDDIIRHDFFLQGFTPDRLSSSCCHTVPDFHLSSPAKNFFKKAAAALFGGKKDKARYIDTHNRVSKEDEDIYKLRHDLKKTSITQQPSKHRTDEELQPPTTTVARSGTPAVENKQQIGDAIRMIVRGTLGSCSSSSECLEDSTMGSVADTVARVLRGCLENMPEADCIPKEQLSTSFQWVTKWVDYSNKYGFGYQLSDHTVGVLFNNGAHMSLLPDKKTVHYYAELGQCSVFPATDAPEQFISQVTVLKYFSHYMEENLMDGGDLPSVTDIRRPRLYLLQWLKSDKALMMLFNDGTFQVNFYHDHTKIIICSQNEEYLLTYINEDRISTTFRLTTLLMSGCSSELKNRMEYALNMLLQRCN
Chain of PLK1 (P53350 whole entry): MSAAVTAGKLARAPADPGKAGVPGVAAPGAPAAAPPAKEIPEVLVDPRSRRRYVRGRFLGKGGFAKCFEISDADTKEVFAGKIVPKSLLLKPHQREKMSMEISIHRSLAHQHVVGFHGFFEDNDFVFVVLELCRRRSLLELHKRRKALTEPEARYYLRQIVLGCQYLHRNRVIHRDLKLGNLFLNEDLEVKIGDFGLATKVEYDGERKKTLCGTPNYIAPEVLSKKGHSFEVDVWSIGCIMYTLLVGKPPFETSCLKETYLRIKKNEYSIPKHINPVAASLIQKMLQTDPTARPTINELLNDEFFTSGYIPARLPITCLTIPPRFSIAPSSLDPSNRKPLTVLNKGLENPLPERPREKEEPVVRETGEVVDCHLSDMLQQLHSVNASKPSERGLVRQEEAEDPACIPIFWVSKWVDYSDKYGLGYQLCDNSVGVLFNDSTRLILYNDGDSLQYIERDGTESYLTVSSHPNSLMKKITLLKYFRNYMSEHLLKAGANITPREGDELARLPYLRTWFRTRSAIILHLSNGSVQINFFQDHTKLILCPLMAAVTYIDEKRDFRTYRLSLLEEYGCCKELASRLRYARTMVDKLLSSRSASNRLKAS
Chain of PLK3 (Q9H4B4 whole entry): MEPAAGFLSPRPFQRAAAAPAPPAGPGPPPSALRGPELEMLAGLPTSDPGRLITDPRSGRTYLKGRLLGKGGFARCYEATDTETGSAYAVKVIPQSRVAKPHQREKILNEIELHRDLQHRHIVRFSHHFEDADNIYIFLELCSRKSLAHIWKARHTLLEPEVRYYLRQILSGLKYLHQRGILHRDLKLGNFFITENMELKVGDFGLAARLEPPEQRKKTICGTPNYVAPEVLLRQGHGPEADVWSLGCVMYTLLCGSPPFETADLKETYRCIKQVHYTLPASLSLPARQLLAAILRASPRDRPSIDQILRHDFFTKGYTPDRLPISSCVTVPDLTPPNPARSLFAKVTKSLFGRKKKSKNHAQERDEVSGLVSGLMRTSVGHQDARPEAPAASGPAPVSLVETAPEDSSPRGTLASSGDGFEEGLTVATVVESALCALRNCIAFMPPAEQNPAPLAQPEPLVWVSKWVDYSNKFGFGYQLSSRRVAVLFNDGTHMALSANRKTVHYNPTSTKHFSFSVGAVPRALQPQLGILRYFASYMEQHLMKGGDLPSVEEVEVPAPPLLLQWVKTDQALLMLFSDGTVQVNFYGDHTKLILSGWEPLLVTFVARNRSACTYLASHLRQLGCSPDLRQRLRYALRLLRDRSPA

What is called IC50 is the concentration needed to halve the response being measured. In the case of `COc1cc(C(=O)NC2CN3CCC2CC3)ccc1Nc1ncc2c(n1)N(C1CCCC1)CC1(CCC1)C(=O)N2C` (racemic) [Compound 218, (±)-4-(9′-cyclopentyl-5′-methyl-6′-oxo-5′,6′,8′,9′-tetrahydrospiro[cyclobutane-1,7′-pyrimido[4,5-b][1,4]diazepine]-2′-ylamino)-3-methoxy-N-(quinuclidin-3-yl)benzamide], the IC50 at PLK1 (setting [3]) is less than 0.1 µM. Besides, the IC50 on PLK1 (Table 3) was less than 0.1 µM. For the same compound, on PLK1 (Table 4), the concentration for half-maximal inhibition (IC50) was less than 0.1 µM. At PLK2, the “Selectivity for PLK1 versus PLK2 compared to compound [I-4] of WO 07/095188” value turned out to be 7 fold, the “Selectivity for PLK1 versus PLK2 compared to compound [I-64] of WO 07/095188” value is “twice” and the “Selectivity for PLK1 versus PLK2 compared to compound [I-76] of WO 07/095188” value is on record as roughly 6 fold. Further, at PLK3, the “Selectivity for PLK1 versus PLK3 compared to compound [I-4] of WO 07/095188” value was 5 fold, the “Selectivity for PLK1 versus PLK3 compared to compound [I-64] of WO 07/095188” value is 5 fold and the “Selectivity for PLK1 versus PLK3 compared to compound [I-76] of WO 07/095188” value is recorded as roughly 12 fold.

With `COc1cc(C(=O)N[C@H]2CC[C@H](N3CCN(CC4CC4)CC3)CC2)ccc1Nc1ncc2c(n1)N(C1CCCC1)CC(C)(C)C(=O)N2C` [Compound 372, 4-(9-cyclopentyl-5,7,7-trimethyl-6-oxo-6,7,8,9-tetrahydro-5H-pyrimido[4,5-b][1,4]diazepin-2-ylamino)-N-((trans)-4-(4-(cyclopropylmethyl)piperazin-1-yl)cyclohexyl)-3-methoxybenzamide], the IC50 on PLK1 (Table 3) is less than 0.1 µM. In data set [1], the “Cellular efflux (MDR/parental cell asymmetry in cell viability assays)” value was “low cellular efflux”.

`COc1cc(C(=O)N[C@H]2CC[C@H](N3CCN(CC4CC4)CC3)CC2)ccc1Nc1ncc2c(n1)N(C1CCCC1)CC1(CC1)C(=O)N2C` [H]: in data set [2], the “Oral bioavailability (% F) compared to compounds A-G” value is recorded as “markedly superior” and the “Systemic exposure (plasma AUC) compared to compounds A-G” value is given as “markedly superior”.

Take `COc1cc(C(=O)N[C@H]2CC[C@H](N3CCN(CC4CC4)CC3)CC2)ccc1Nc1ncc2c(n1)N(C1CCCC1)CCC(=O)N2C` [I]: in data set [2], the “Oral bioavailability (% F) compared to compounds A-G” value is “markedly superior” and the “Systemic exposure (plasma AUC) compared to compounds A-G” value is given as “markedly superior”.

As to `CN1C(=O)CCN(C2CCCC2)c2nc(Nc3ccc(C(=O)N4CCOCC4)cc3)ncc21` [compound 293, 9-Cyclopentyl-5-methyl-2-[4-(morpholine-4-carbonyl)-phenylamino]-5,7,8,9-tetrahydro-pyrimido[4,5-b][1,4]diazepin-6-one], the values for the half-inhibitory concentration (IC50) at PLK1 (setting [3]) and at AA were less than 10 µM and less than 0.1 µM, respectively.

As for `CN1C(=O)CCN(C2CCCC2)c2nc(Nc3ccc4c(c3)OCC(=O)N4)ncc21` [compound 294, 9-Cyclopentyl-5-methyl-2-(3-oxo-3,4-dihydro-2H-benzo[1,4]oxazin-7-ylamino)-5,7,8,9-tetrahydro-pyrimido[4,5-b][1,4]diazepin-6-one], the 50% inhibitory concentration (IC50) on PLK1 (setting [3]) and at AA was less than 1 µM each time.

Consider `CN1C(=O)CCN(C2CCCC2)c2nc(Nc3ccc4c(c3)NC(=O)CO4)ncc21` [compound 295, 9-Cyclopentyl-5-methyl-2-(3-oxo-3,4-dihydro-2H-benzo[1,4]oxazin-6-ylamino)-5,7,8,9-tetrahydro-pyrimido[4,5-13][1,4]diazepin-6-one], for which the IC50 at PLK1 (setting [3]) is less than 10 µM; on AA, less than 0.1 µM.

`CN1C(=O)CCN(C2CCCC2)c2nc(Nc3ccc4sc(C(=O)O)cc4c3)ncc21` [compound 296]: the half-maximal inhibitory concentration (IC50) at PLK1 (setting [3]) is less than 1 µM; on AA it was less than 0.1 µM.

For `CN1C(=O)CCN(C2CCCC2)c2nc(Nc3ccc(C(=O)N4CCOCC4)cc3)ncc21` [compound 297, 9-Cyclopentyl-5-methyl-2-[4-(morpholine-4-carbonyl)-phenylamino]-5,7,8,9-tetrahydro-pyrimido[4,5-b][1,4]diazepin-6-one], the values for the 50% inhibitory concentration (IC50) on PLK1 (setting [3]) and on AA were less than 10 µM and less than 0.1 µM, respectively.

On to `CN1C(=O)CCN(C2CCCC2)c2nc(Nc3ccc4c(c3)OCC(=O)N4)ncc21` [compound 298, 9-Cyclopentyl-5-methyl-2-(3-oxo-3,4-dihydro-2H-benzo[1,4]oxazin-7-ylamino)-5,7,8,9-tetrahydro-pyrimido[4,5-b][1,4]diazepin-6-one], for which the concentration for half-maximal inhibition (IC50) at PLK1 (setting [3]) and on AA was less than 1 µM each time.

For the compound `CN1C(=O)CCN(C2CCCC2)c2nc(Nc3ccc4c(c3)NC(=O)CO4)ncc21` [compound 299, 9-Cyclopentyl-5-methyl-2-(3-oxo-3,4-dihydro-2H-benzo[1,4]oxazin-6-ylarnino)-5,7,8,9-tetrahydro-pyrimido[4,5-b][1,4]diazepin-6-one], the results for the 50% inhibitory concentration (IC50) at PLK1 (setting [3]) and on AA were less than 10 µM and less than 0.1 µM, respectively.

As for `CN1C(=O)CCN(C2CCCC2)c2nc(Nc3ccc(S(=O)(=O)N(C)C)cc3)ncc21` [compound 300, 4-(9-Cyclopentyl-5-methyl-6-oxo-6,7,8,9-tetrahydro-5H-pyrimido[4,5-b][1,4]diazepin-2-ylamino)-N,N-dimethyl-benzenesulfonamide], the IC50 was less than 10 µM on PLK1 (setting [3]) and less than 0.1 µM at AA.

Take `CC(=O)Nc1ccc(Nc2ncc3c(n2)N(C2CCCC2)CCC(=O)N3C)cc1Cl` [compound 324, N-[2-Chloro-4-(9-cyclopentyl-5-methyl-6-oxo-6,7,8,9-tetrahydro-5H-pyrimido[4,5-b][1,4]diazepin-2-ylamino)-phenyl]-acetamide]: the results for the IC50 at PLK1 (setting [3]) and on AA were less than 10 µM and less than 1 µM, respectively.

Regarding `CN1CCC(NC(=O)c2ccc(Nc3ncc4c(n3)N(C3CCCC3)CC3(CC3)C(=O)N4C)cc2)CC1` [compound 349, 4-(9-Cyclopentyl-5-methyl-6-oxo-6,7,8,9-tetrahydro-5H-spiro[pyrimido[4,5-b][1,4]diazepin-3,1'-cyclopropane]-2-ylamino)-N-(1-methyl-piperidin-4-yl)-benzamide], the figures for the IC50 at PLK1 (setting [3]) and at AA were less than 1 µM and less than 10 µM, respectively.
